Data set [1] is described as follows: Retention time in rat liver microsomes treated with 50 uM pirfenidone incubated for 45 mins in presence of NADPH by LC-MS/MS analysis. It counts as ADME, Microsome. Conditions: 0.75 h. A general note: Liver microsomes are a subcellular fraction often used to study metabolism.
Data set [2] is described as follows: Retention time in rat liver microsomes treated with 50 uM pirfenidone incubated for 45 mins in presence of NADPH and NAC by LC-MS/MS analysis. It counts as ADME, Microsome. Conditions: 0.75 h.
Data set [3] addresses T1, Cytochrome P450 3A4 (Homo sapiens, UniProt P08684). The experiment in a line: Drug level assessed as human recombinant CYP3A4-mediated compound formation using 50 uM pirfenidone incubated for 45 mins in presence of NADPH and glutathione by LC-MS/MS analysis. It counts as ADME. Conditions: recombinant enzyme, 0.75 h.
In data set [4] the target is T2, Cytochrome P450 3A5 (Homo sapiens, UniProt P20815). The experiment in a line: Drug level assessed as human recombinant CYP3A5-mediated compound formation using 50 uM pirfenidone incubated for 45 mins in presence of NADPH and glutathione by LC-MS/MS analysis. The data set is classed as ADME. As to conditions: recombinant enzyme, 0.75 h.
The nature of data set [5]: Toxicity in rat assessed as induction of liver injury at 150 to 200 mg/kg, ip. It counts as organism-based. As to conditions: in vivo.
The nature of data set [6]: Drug metabolism in rat liver assessed as formation of GSH-conjugate by measuring hepatic protein adduction formation at 50 to 200 mg/kg, ip measured after 1 hr by LC-MS/MS analysis. As to conditions: in vivo. It counts as ADME, organism-based.
The test system of a further data set is Hepatocyte. The experiment in a line: Toxicity in rat primary hepatocytes at 800 uM. It counts as cell-based.
Data set [7] in a line: Drug metabolism in rat bile assessed as formation of (2R)-2-acetamido-3-[(6-oxo-1-phenyl-3-pyridyl)methylsulfanyl]propanoic acid at 100 mg/kg, ip measured after 2 hrs by LC-MS/MS analysis. It counts as ADME, organism-based. As to conditions: in vivo.
Data set [8] has as its target T1, Cytochrome P450 3A4. The data set can be described thus: Drug metabolism assessed as human recombinant CYP3A4-mediated 5-methylene-1-phenyl-pyridin-1-ium-2-one formation at 50 uM incubated for 45 mins in presence of NADPH and glutathione by LC-MS/MS analysis. The data set is classed as ADME. Conditions: recombinant enzyme, 0.75 h.
A short description of data set [9]: Drug metabolism in rat liver assessed as formation of GSH-conjugate at 100 mg/kg, ip measured up to 3 hrs by LC-MS/MS analysis. It counts as ADME, organism-based. As to conditions: in vivo.
A short description of data set [10]: Drug metabolism in rat liver assessed as formation of GSH-conjugate by measuring retention time of cysteine adduct in proteolytic protein samples at 10 to 400 mg/kg, ip measured up to 3 hrs by LC-MS/MS analysis. As to conditions: in vivo. The data set is classed as ADME, organism-based.
Data set [11] can be described thus: Drug metabolism in rat liver microsomes assessed as Retention time of GSH metabolite at 50 uM incubated for 45 mins in presence of NADPH and glutathione by LC-MS/MS analysis. It counts as ADME, Microsome. Conditions: 0.75 h.
The nature of data set [12]: Drug metabolism in rat liver microsomes assessed as 5-Hydroxymethyl-1-phenyl-1H-pyridine-2-one formation at 50 uM incubated for 45 mins in presence of NADPH and glutathione by LC-MS/MS analysis. The data set is classed as ADME, Microsome. Conditions: 0.75 h.
In data set [13] the target is T2, Cytochrome P450 3A5. The data set can be described thus: Drug metabolism assessed as human recombinant CYP3A5-mediated 5-methylene-1-phenyl-pyridin-1-ium-2-one formation at 50 uM incubated for 45 mins in presence of NADPH and glutathione by LC-MS/MS analysis. It counts as ADME. Conditions: recombinant enzyme, 0.75 h.
The target of the next data set is T3, Cytochrome P450 2A6 (Homo sapiens, UniProt P11509).
T3 sequence (P11509 whole entry): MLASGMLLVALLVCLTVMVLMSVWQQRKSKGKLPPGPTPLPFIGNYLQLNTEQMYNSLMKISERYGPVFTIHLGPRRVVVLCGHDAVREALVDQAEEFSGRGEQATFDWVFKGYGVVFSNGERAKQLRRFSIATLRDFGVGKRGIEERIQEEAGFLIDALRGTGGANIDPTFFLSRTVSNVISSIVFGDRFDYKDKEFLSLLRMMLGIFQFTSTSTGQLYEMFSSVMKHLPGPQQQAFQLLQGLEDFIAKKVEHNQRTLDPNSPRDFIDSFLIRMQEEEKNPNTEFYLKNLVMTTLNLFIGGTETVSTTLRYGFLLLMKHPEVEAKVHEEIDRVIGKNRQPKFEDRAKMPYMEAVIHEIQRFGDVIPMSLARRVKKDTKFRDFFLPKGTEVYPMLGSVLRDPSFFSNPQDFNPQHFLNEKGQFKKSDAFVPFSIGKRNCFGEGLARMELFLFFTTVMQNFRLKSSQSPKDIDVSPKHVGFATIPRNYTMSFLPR
The data set can be described thus: Drug metabolism assessed as human recombinant CYP2A6-mediated compound activation using 50 uM pirfenidone incubated for 45 mins in presence of NADPH and glutathione by LC-MS/MS analysis. The data set is classed as ADME. Conditions: recombinant enzyme, 0.75 h.

T2 sequence (P20815 whole entry): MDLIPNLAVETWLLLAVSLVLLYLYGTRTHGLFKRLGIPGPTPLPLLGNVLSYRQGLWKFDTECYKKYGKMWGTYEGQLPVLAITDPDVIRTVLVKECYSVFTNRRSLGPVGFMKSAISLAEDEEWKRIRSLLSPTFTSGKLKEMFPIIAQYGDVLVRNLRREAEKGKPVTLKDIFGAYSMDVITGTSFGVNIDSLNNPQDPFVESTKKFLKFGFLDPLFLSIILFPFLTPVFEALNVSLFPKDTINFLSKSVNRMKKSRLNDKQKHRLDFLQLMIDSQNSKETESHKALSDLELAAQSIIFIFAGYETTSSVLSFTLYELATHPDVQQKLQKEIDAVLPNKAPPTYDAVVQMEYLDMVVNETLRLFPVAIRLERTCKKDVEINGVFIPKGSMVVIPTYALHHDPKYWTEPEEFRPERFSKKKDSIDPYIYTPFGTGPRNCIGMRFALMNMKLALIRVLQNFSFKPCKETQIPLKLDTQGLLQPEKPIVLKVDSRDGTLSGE
T1 sequence (P08684 whole entry): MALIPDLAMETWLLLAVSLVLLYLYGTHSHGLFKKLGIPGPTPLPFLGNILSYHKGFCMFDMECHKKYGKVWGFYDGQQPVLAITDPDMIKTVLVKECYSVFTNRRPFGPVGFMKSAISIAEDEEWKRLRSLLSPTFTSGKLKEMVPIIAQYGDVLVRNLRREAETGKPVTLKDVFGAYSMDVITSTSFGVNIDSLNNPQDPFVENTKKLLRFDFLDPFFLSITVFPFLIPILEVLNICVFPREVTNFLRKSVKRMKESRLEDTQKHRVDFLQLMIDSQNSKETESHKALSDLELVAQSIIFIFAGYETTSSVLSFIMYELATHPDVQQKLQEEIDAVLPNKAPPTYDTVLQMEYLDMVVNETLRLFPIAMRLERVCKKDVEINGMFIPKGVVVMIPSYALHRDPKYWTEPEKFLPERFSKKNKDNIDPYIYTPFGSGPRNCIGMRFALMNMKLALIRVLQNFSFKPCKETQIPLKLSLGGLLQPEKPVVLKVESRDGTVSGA

Regarding `O=c1ccc(CO)cn1-c1ccccc1`, the Retention_time in [1] is 7.25 min.
With `CC(=O)N[C@@H](CSCc1ccc(=O)n(-c2ccccc2)c1)C(=O)O`, the Retention_time in data set [2] was determined as 7.26 min.
In the case of `C=C1C=CC(=O)[N+](c2ccccc2)=C1`, the Drug uptake result at Cytochrome P450 3A4 [3] and on Cytochrome P450 3A5 [4] was “Metabolite_Detected” each time.
Turning to `Cc1ccc(=O)n(-c2ccccc2)c1` [PIRFENIDONE], the Activity result (in data set [5]; in the data set on Hepatocyte) was “Non-Toxic” throughout. Moreover, the Drug metabolism result in data set [6] is listed as “Dose-dependent effect”; in data set [7] it was “Metabolite_Detected”; on Cytochrome P450 3A4 [8] it was “Metabolite_Detected”; in [9], “Dose-dependent effect”; in [12], “Metabolite_Detected”; on Cytochrome P450 3A5 [13], “Metabolite_Detected”. Besides, on Cytochrome P450 2A6, the Drug metabolism result is “Metabolite_Detected”. Further, the Retention_time came to 6.24 min in [10] and 6.6 min in data set [11].

(Values after ChEMBL document CHEMBL4627408, “Metabolic Activation of Pirfenidone Mediated by Cytochrome P450s and Sulfotransferases” (J Med Chem, 2020).)
